Here are results for nine compounds from patent publication US20060183901A1, “Crystalline form of an indazole-carboxamide compound” (THERAVANCE, INC., priority 2005, published 2006).

Format in all cases: physicochemical
Data set [1] in a line: Differential scanning calorimetry (DSC). The method, then:
Differential scanning calorimetry (DSC) was performed using a TA Instruments
Model Q-100 module. Data were collected and analyzed using TA Instruments Thermal Advantage for Q Series™ software. A sample of about 1-2 mg was accurately weighed into an aluminum pan with lid. The sample was evaluated using a linear heating ramp of 5° C./min from ambient temperature to at least 225° C. The DSC cell was purged with dry nitrogen during use. Representative DSC traces for samples of the crystalline dihydrochloride and dihydrobromide salts of the invention are shown in FIGS. 2 and 4, respectively.
(§1) The crystalline acid salts of the compound of formula I of Comparative Examples 1-4 were analyzed by PXRD, DSC, and TGA. The temperatures at which endothermic heat flow was observed by DSC, and weight loss was observed by TGA, along with confirmation of crystallinity by PXRD are summarized in Table II where the stoichiometry is indicated by the number of molar equivalents of acid used to prepare the acid salt.
(In general: In DSC, transitions show as peaks or steps in heat flow.)

The nature of data set [2]: Thermogravimetric analysis (TGA). The method, then:
Thermogravimetric analysis (TGA) was performed using a TA Instruments Model Q-500 module. Data were collected and analyzed using TA Instruments Thermal Advantage for Q Series™ software. […] The balance and furnace chambers were purged with nitrogen during use. Representative TGA traces for samples of crystalline dihydrochloride and dihydrobromide salts of the invention are also shown in FIGS. 2 and 4, respectively.
as §1

Data set [3] can be described thus: Dynamic moisture sorption assessment. As to conditions: humidity range of 40% to 60% relative humidity. Here is the method:
Dynamic moisture sorption (DMS) assessment was performed at 25° C. using a VTI atmospheric microbalance, SGA-100 system (VTI Corp., Hialeah, Fla. 33016). A sample size of approximately 5-10 mg was used and the humidity was set at the ambient value at the start of the analysis. A typical DMS analysis consisted of three scans: ambient to 2% relative humidity (RH), 2% RH to 90% RH, 90% RH to 5% RH at a scan rate of 5% RH/step. The mass was measured every two minutes and the RH was changed to the next value (+5% RH) when the mass of the sample was stable to within 0.01% for 5 consecutive points. Representative DMS traces for samples of crystalline dihydrochloride and dihydrobromide salts of the invention are shown in FIGS. 5 and 6, respectively.

Data set [4] in a line: Storage stability of the crystalline hydrate at 40° C. and 75% RH. Here is the method:
A sample of the dihydrochloride salt of the invention, about 50 mg, was stored in a 20 mL glass vial at 40° C. and 75% relative humidity. At specific intervals, aliquots of sample were dispensed and analyzed by PXRD and by DSC and TGA. The low temperature (i.e. below 150° C.) features in the DSC and TGA traces are characteristic of a hydrate. The hydrate form is observed to be stable when stored at 40° C. and 75% RH.

The nature of data set [5]: Solid state stability assessment (HPLC, Karl Fischer). The method, then: Samples of the dihydrochloride salt of the invention, about 100 mg each, were stored in multiple 4 mL glass vials with Teflon lined lids at 25° C. and 60% relative humidity (RH) and at 40° C. and 75% RH in open and closed containers. At specific intervals, the contents of a representative vial was removed and analyzed by the Karl Fisher method for water content and by the following HPLC method: • Column: Agilent Zorbax Bonus RP, 4.6×250 mm, 5 μm (Agilent Part No. 880668-901); • Mobile Phase A: 88% water, 2% acetonitrile, 10% 100 mM potassium phosphate; • Mobile Phase B: 20% water, 70% acetonitrile; 10% 100 mM potassium phosphate; • Flow rate: 1.5 mL/min; • Injection Volume: 10 μL • Detector: 214 nm; • Gradient—Time in minutes (% Mobile Phase B): 0.0 (2); 1.0 (2); 9.0 (22); • 19.0 (28); 33.0 (63); 36.3 (100); 37.0 (2); and 42.0 (2).
Samples were prepared as 0.25 to 0.75 mg/mL solutions in 5% acetonitrile, 85% water, 10% 100 mM potassium phosphate for injection onto the HPLC.
The initial water content was 1.2%, as determined by Karl Fischer titration using a Brinkman Metrohm (Westbury, N.Y.) Karl Fischer Model 831 coulometer. After 6 months the water content of the samples stored in open containers at 25° C./60% RH and at 40° C./75% RH was 2.9% and 5.3%, respectively, an increase of 1.7% and 4.1%, respectively.

Where [6] appears, read: 6 months, open containers, 25° C./60% RH.
Where [7] appears, read: 6 months, open containers, 40° C./75% RH.
Setting [8] is: six months at 25° C. and 60% relative humidity.

On to `CC(=O)N1CCN(CCN2[C@@H]3CC[C@H]2CC(NC(=O)c2nn(C(C)C)c4ccccc24)C3)CC1.O=C(O)/C=C/C(=O)O` (stereo partly drawn) [fumarate, fumaric Acid Salt of 1-isopropyl-1H-indazole-3-carboxylic acid {(1S,3R,5R)-8-[2-(4-acetylpiperazin-1-yl)ethyl]-8-azabicyclo[3.2.1]oct-3-yl}amide], for which the “DSC endotherm (temperature of endothermic heat flow)” value (“DSC endotherm” for short) in data set [1] was less than 150 °C. Further, in data set [2], the “TGA: temperature of weight loss” value was “loss ˜100 °C” and the “TGA: weight loss” value is on record as 5-6% wt.

On to `CC(=O)N1CCN(CCN2[C@@H]3CC[C@H]2C[C@@H](NC(=O)c2nn(C(C)C)c4ccccc24)C3)CC1.O=P(O)(O)O` [phosphate (1), Phosphoric Acid Salt of 1-isopropyl-1H-indazole-3-carboxylic Acid {(1S,3R,5R)-8-[2-(4-acetylpiperazin-1-yl)ethyl]-8-azabicyclo[3.2.1]oct-3-yl}amide], for which, in data set [2], the “TGA: temperature of weight loss” value was “loss <100 °C” and the “TGA: weight loss” value is given as 3-5% wt.

As for `CC(=O)O` [acetate], the “DSC endotherm” value in data set [1] was “˜100 °C”. Moreover, the “TGA: temperature of weight loss” value in data set [2] is “˜100 °C”.

For `CC(=O)N1CCN(CCN2[C@@H]3CC[C@H]2CC(NC(=O)c2nn(C(C)C)c4ccccc24)C3)CC1.Cc1ccc(S(=O)(=O)O)cc1` (stereo partly drawn) [tosylate, p-toluene Sulfonic Acid Salt of 1-isopropyl-1H-indazole-3-carboxylic acid {(1S,3R,5R)-8-[2-(4-acetylpiperazin-1-yl)ethyl]-8-azabicyclo[3.2.1]oct-3-yl}amide], the “DSC endotherm” value in data set [1] is more than 200 °C.

In the case of `Br.Br.CC(=O)N1CCN(CCN2[C@@H]3CC[C@H]2CC(NC(=O)c2nn(C(C)C)c4ccccc24)C3)CC1` (stereo partly drawn) [dihydrobromide salt, 1-isopropyl-1H-indazole-3-carboxylic Acid {(1S,3R,5R)-8-[2-(4-acetylpiperazin-1-yl)ethyl]-8-azabicyclo[3.2.1]oct-3-yl}amide dihydrobromide], in data set [3], the “weight gain (hygroscopicity)” value is “less than 1%”. Further, in data set [1], the “DSC: temperature below which no (significant) thermal events” value was “about 230 °C”. For the same compound, in data set [2], the “TGA: temperature below which no (significant) thermal event” value is “about 250 °C”.

On to `O=[N+]([O-])O` [nitrate], for which the “DSC endotherm” value in data set [1] is less than 100 °C. In data set [2], the “TGA: temperature of weight loss” value was “loss ˜150 °C” and the “TGA: weight loss” value was 5-6% wt.

For benzoate, the “DSC endotherm” value in data set [1] was less than 150 °C. Also, the “TGA: temperature of weight loss” value in data set [2] is “˜100 °C”.

With `CC(=O)N1CCN(CCN2[C@@H]3CC[C@H]2CC(NC(=O)c2nn(C(C)C)c4ccccc24)C3)CC1.Cl.Cl.O` (stereo partly drawn) [hydrate, Crystalline hydrate of 1-isopropyl-1H-indazole-3-carboxylic Acid {(1S,3R,5R)-8-[2-(4-acetylpiperazin-1-yl)ethyl]-8-azabicyclo[3.2.1]oct-3-yl}amide dihydrochloride], in data set [4] (8 weeks vs 12 weeks at 40° C./75% RH), the “change in PXRD peak positions” value is on record as “no significant change in PXRD peak positions”. Further, the “stability of hydrate form on storage” value in data set [4] (40° C. and 75% RH) is on record as “stable”.

As for `CC(=O)N1CCN(CCN2[C@@H]3CC[C@H]2C[C@@H](NC(=O)c2nn(C(C)C)c4ccccc24)C3)CC1.Cl.Cl` [dihydrochloride salt, 1-isopropyl-1H-indazole-3-carboxylic Acid {(1S,3R,5R)-8-[2-(4-acetylpiperazin-1-yl)ethyl]-8-azabicyclo[3.2.1]oct-3-yl}amide dihydrochloride], in data set [3], the “weight gain (hygroscopicity)” value is reported as “less than 1%”. Further, in data set [5] (6 months of storage, all conditions (25° C./60% RH, 40° C./75% RH, open and closed)), the change in potency result is “no detectable change in potency”. In data set [5] (setting [6]), the “increase of water content” value was found to be 1.7% and the “water content (Karl Fischer)” value worked out at 2.9%. For the same compound, in data set [5] (setting [7]), the “increase of water content” value was determined as 4.1% and the “water content (Karl Fischer)” value amounted to 5.3%. In data set [5] (initial), the “initial potency compared with the freebase (HPLC area percentage)” value is 82.4% and the “water content (Karl Fischer)” value is on record as 1.2%. In data set [5] (setting [8]), the “chemical degradation by HPLC” value is “no chemical degradation” and the “gain in moisture content” value is reported as less than 2%. In data set [1], the “DSC: temperature below which no (significant) thermal events” value was “about 200 °C”; the “simultaneous melting and decomposition temperature (DSC and TGA)” value was 180-200 °C. For the same compound, the “TGA: temperature below which no (significant) thermal event” value in data set [2] is “about 180 °C”.
